# Data as given in article PMC6691788, “Design and synthesis of phthalazine-based compounds as potent anticancer agents with potential antiangiogenic activity via VEGFR-2 inhibition” (Journal of Enzyme Inhibition and Medicinal Chemistry, 2019).
# What was measured:
# CCRF-CEM = assay: NCI 60 cell panel SRB screen; format: cell-based, human; conditions: for activity at 10 µM: single dose 10 μM, read-out: percent cell growth promotion
# K-562 = assay: NCI 60 cell panel SRB screen; format: cell-based; conditions: Homo sapiens, K562; for activity at 10 µM: K-562, single dose 10 μM, read-out: percent cell growth promotion
# RPMI-8226 = assay: NCI 60 cell panel SRB screen; format: cell-based; conditions: Homo sapiens; for activity at 10 µM: RPMI-8226, single dose 10 μM, read-out: percent cell growth promotion
# SR = assay: NCI 60 cell panel SRB screen; format: cell-based; conditions: Homo sapiens; for activity at 10 µM: single dose 10 μM, read-out: percent cell growth promotion
# A549/ATCC = assay: NCI 60 cell panel SRB screen; format: cell-based; conditions: Homo sapiens; for activity at 10 µM: single dose 10 μM, read-out: percent cell growth promotion
# HOP-62 = assay: NCI 60 cell panel SRB screen; format: cell-based; conditions: Homo sapiens; for activity at 10 µM: HOP-62, single dose 10 μM, read-out: percent cell growth promotion
# HCT-116 = assay: NCI 60 cell panel SRB screen; format: cell-based; conditions: Homo sapiens; for activity at 10 µM: HCT-116, single dose 10 μM, read-out: percent cell growth promotion
# SW-620 = assay: NCI 60 cell panel SRB screen; format: cell-based; conditions: Homo sapiens; for activity at 10 µM: SW-620, single dose 10 μM, read-out: percent cell growth promotion
# SF-268 = assay: NCI 60 cell panel SRB screen; format: cell-based; conditions: Homo sapiens; for activity at 10 µM: SF-268, single dose 10 μM, read-out: percent cell growth promotion
# SF-295 = assay: NCI 60 cell panel SRB screen; format: cell-based; conditions: Homo sapiens; for activity at 10 µM: SF-295, single dose 10 μM, read-out: percent cell growth promotion
# MALME-3M = assay: NCI 60 cell panel SRB screen; format: cell-based; conditions: Homo sapiens; for activity at 10 µM: read-out: percent cell growth promotion
# M14 = assay: NCI 60 cell panel SRB screen; format: cell-based; conditions: Homo sapiens; for activity at 10 µM: M14, read-out: percent cell growth promotion
# SK-MEL-5 = assay: NCI 60 cell panel SRB screen; format: cell-based; conditions: Homo sapiens; for activity at 10 µM: SK-MEL-5, read-out: percent cell growth promotion
# UACC-257 = assay: NCI 60 cell panel SRB screen; format: cell-based; conditions: Homo sapiens; for activity at 10 µM: UACC-257, read-out: percent cell growth promotion
# UACC-62 = assay: NCI 60 cell panel SRB screen; format: cell-based; conditions: for activity at 10 µM: UACC-62, read-out: percent cell growth promotion
# OVCAR-3 = assay: NCI 60 cell panel SRB screen; format: cell-based; conditions: Homo sapiens; for activity at 10 µM: OVCAR-3, single dose 10 μM, read-out: percent cell growth promotion
# OVCAR-8 = assay: NCI 60 cell panel SRB screen; format: cell-based; conditions: Homo sapiens; for activity at 10 µM: OVCAR-8, single dose 10 μM, read-out: percent cell growth promotion
# 786-0 = assay: NCI 60 cell panel SRB screen; format: cell-based; conditions: Homo sapiens; for activity at 10 µM: 786-0, single dose 10 μM, read-out: percent cell growth promotion
# DU-145 = assay: NCI 60 cell panel SRB screen; format: cell-based; conditions: Homo sapiens; for activity at 10 µM: DU-145, single dose 10 μM, read-out: percent cell growth promotion
# VEGFR-2 tyrosine kinase = target: T1, VEGFR-2 tyrosine kinase (Homo sapiens, UniProt P35968); assay: In vitro VEGFR-2 tyrosine kinase assay (BPS Bioscience); format: biochemical; conditions: read-out: VEGFR-2 % inhibition; 10 μM concentration
# T1 construct: purchased BPS Bioscience 40301
# Summary of the method: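 For IC50, ADP formation after a 30-min 30 °C reaction was detected by ADP-Glo luminescence in duplicate, blank-subtracted and fitted as log inhibitor versus normalised response. The 10 µM single-dose test instead measured remaining ATP (Kinase-Glo Plus) after 40 min at 30 °C with poly(Glu,Tyr) substrate, 10 μM ATP, pH 7.4, 1% DMSO.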
# T1 sequence (P35968 20-1356): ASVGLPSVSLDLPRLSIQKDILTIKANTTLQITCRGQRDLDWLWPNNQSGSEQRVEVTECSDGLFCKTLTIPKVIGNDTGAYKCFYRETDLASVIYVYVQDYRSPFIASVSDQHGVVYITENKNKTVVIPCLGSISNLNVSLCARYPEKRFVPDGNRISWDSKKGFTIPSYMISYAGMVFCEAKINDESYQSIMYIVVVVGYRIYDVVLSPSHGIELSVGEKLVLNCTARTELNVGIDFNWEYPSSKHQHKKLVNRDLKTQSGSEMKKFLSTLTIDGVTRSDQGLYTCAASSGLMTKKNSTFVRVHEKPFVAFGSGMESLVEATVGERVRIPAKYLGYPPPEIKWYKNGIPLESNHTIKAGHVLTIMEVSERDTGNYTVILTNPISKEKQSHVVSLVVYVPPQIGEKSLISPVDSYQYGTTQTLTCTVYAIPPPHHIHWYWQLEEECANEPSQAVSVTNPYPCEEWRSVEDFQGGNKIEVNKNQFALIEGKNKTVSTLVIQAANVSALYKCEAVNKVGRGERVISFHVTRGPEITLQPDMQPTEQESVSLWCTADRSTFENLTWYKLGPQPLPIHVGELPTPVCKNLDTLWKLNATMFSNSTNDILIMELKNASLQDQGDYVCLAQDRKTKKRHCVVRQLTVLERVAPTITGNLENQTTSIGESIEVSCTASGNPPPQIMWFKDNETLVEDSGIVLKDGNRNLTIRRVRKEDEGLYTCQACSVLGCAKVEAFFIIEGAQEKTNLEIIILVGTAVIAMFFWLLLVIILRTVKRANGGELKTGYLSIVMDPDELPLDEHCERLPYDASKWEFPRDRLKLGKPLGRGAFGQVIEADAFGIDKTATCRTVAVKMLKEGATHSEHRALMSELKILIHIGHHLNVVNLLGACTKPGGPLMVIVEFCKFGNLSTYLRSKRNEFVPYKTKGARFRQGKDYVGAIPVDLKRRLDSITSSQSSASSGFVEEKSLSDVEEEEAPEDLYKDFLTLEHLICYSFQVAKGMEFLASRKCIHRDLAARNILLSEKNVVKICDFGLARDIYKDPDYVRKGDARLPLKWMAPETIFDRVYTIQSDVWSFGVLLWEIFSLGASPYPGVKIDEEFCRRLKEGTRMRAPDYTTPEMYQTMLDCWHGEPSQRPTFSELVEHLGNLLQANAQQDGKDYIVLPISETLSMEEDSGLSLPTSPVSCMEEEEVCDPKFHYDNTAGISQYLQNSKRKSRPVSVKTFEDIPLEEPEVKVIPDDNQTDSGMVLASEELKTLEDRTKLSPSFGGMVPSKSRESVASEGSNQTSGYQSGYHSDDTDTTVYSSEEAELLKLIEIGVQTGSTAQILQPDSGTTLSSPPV
structure (smiles),measurement,setting,value
"Cc1nnc(N2CCN(c3ccccc3F)CC2)c2ccccc12 [Compound 8h, 1–(4-(2-Fluorophenyl)piperazin-1-yl)-4-methylphthalazine]",activity at 10 µM,CCRF-CEM; Homo sapiens,99.7%
same,activity at 10 µM,K-562,110%
same,activity at 10 µM,RPMI-8226,101%
same,activity at 10 µM,SR,95.1%
same,activity at 10 µM,A549/ATCC,89%
same,activity at 10 µM,HOP-62,100%
same,activity at 10 µM,HCT-116,95.6%
same,activity at 10 µM,SW-620,106%
same,activity at 10 µM,SF-268,110%
same,activity at 10 µM,SF-295,92.7%
same,activity at 10 µM,MALME-3M; Malme-3M,103%
same,activity at 10 µM,M14,95%
same,activity at 10 µM,SK-MEL-5,92.9%
same,activity at 10 µM,UACC-257,95.3%
same,activity at 10 µM,UACC-62; Homo sapiens,99.2%
same,activity at 10 µM,OVCAR-3,110%
same,activity at 10 µM,OVCAR-8,95.3%
same,activity at 10 µM,786-0,90.2%
same,activity at 10 µM,DU-145,107%
same,inhibition at 10 µM,VEGFR-2 tyrosine kinase,9%
"Cc1nnc(N2CCN(c3ccccn3)CC2)c2ccccc12 [Compound 8i, 1-Methyl-4–(4-(pyridin-2-yl)piperazin-1-yl)phthalazine]",activity at 10 µM,CCRF-CEM; Homo sapiens,102%
same,activity at 10 µM,K-562,101%
same,activity at 10 µM,RPMI-8226,104%
same,activity at 10 µM,SR,92.1%
same,activity at 10 µM,A549/ATCC,92.3%
same,activity at 10 µM,HOP-62,99.8%
same,activity at 10 µM,HCT-116,98.1%
same,activity at 10 µM,SW-620,113%
same,activity at 10 µM,SF-268,106%
same,activity at 10 µM,SF-295,87.8%
same,activity at 10 µM,MALME-3M; Malme-3M,107%
same,activity at 10 µM,M14,98.6%
same,activity at 10 µM,SK-MEL-5,97%
same,activity at 10 µM,UACC-257,98.5%
same,activity at 10 µM,UACC-62; Homo sapiens,101%
same,activity at 10 µM,OVCAR-3,114%
same,activity at 10 µM,OVCAR-8,98.9%
same,activity at 10 µM,786-0,92.4%
same,activity at 10 µM,DU-145,111%
same,inhibition at 10 µM,VEGFR-2 tyrosine kinase,6%
"O=C(Nc1ccccc1)Nc1ccc(Oc2nnc(Cl)c3ccccc23)cc1 [Compound 13a, 1–(4-(4-Chlorophthalazin-1-yloxy)phenyl)-3-phenylurea]",TGI,CCRF-CEM; 5 log dose,> 25 µM
same,GI50,"CCRF-CEM; Homo sapiens, 5 log dose",4.44 µM
same,CC50,"CCRF-CEM; Homo sapiens, 5 log dose, 48 h, read-out: LC50 (the source's name)",> 25 µM
same,activity at 10 µM,CCRF-CEM; Homo sapiens,47.6%
same,GI50,"K-562; K-562, 5 log dose",6.21 µM
same,IC (TGI),"K-562; K-562, 5 log dose",> 25 µM
same,CC50,"K-562; K-562, 5 log dose, 48 h, read-out: LC50 (the source's name)",> 25 µM
same,activity at 10 µM,K-562,51.6%
same,GI50,"RPMI-8226; RPMI-8226, 5 log dose",4.45 µM
same,IC (TGI),"RPMI-8226; RPMI-8226, 5 log dose",24.3 µM
same,CC50,"RPMI-8226; RPMI-8226, 5 log dose, 48 h, read-out: LC50 (the source's name)",> 25 µM
same,activity at 10 µM,RPMI-8226,35.1%
same,GI50,SR; 5 log dose,1.93 µM
same,IC (TGI),SR; 5 log dose,8.26 µM
same,CC50,"SR; 5 log dose, 48 h, read-out: LC50 (the source's name)",> 25 µM
same,activity at 10 µM,SR,18%
same,GI50,A549/ATCC; 5 log dose,3.47 µM
same,IC (TGI),A549/ATCC; 5 log dose,18.4 µM
same,LC50 (concentration killing 50% of cells),"A549/ATCC; 5 log dose, 48 h",> 25 µM
same,activity at 10 µM,A549/ATCC,11.2%
same,GI50,"HOP-62; HOP-62, 5 log dose",2.52 µM
same,IC (TGI),"HOP-62; HOP-62, 5 log dose",65.4 µM
same,CC50,"HOP-62; HOP-62, 5 log dose, 48 h, read-out: LC50 (the source's name)",17 µM
same,activity at 10 µM,HOP-62,-43.4%
same,GI50,"HCT-116; HCT-116, 5 log dose",3.06 µM
same,IC (TGI),"HCT-116; HCT-116, 5 log dose",9.77 µM
same,LC50 (lethal concentration 50%),"HCT-116; HCT-116, 5 log dose, 48 h",> 25 µM
same,activity at 10 µM,HCT-116,10.6%
same,GI50,"SW-620; SW-620, 5 log dose",8.41 µM
same,IC (TGI),"SW-620; SW-620, 5 log dose",> 25 µM
same,CC50,"SW-620; SW-620, 5 log dose, 48 h, read-out: LC50 (the source's name)",> 25 µM
same,activity at 10 µM,SW-620,73.4%
same,GI50,"SF-268; SF-268, 5 log dose",2.89 µM
same,IC (TGI),"SF-268; SF-268, 5 log dose",7.57 µM
same,CC50,"SF-268; SF-268, 5 log dose, 48 h, read-out: LC50 (the source's name)",19.8 µM
same,activity at 10 µM,SF-268,25.9%
same,GI50,"SF-295; SF-295, 5 log dose",2.07 µM
same,IC (TGI),"SF-295; SF-295, 5 log dose",5.63 µM
same,CC50,"SF-295; SF-295, 5 log dose, 48 h, read-out: LC50 (the source's name)",13.5 µM
same,activity at 10 µM,SF-295,31.2%
same,GI50,MALME-3M; Malme-3M,1.62 µM
same,IC (TGI),"MALME-3M; Malme-3M, read-out: TGI",5.93 µM
same,activity at 10 µM,MALME-3M; Malme-3M,-29.6%
same,CC50,"MALME-3M; MALME-3M, 5 log dose, 48 h, read-out: LC50 (the source's name)",16 µM
same,GI50,M14; M14,6.15 µM
same,IC (TGI),"M14; M14, read-out: TGI",> 25 µM
same,activity at 10 µM,M14,46.2%
same,CC50,"M14; M14, 5 log dose, 48 h, read-out: LC50 (the source's name)",> 25 µM
same,GI50,SK-MEL-5; SK-MEL-5,4.56 µM
same,IC (TGI),"SK-MEL-5; SK-MEL-5, read-out: TGI",18.6 µM
same,activity at 10 µM,SK-MEL-5,32.9%
same,CC50,"SK-MEL-5; SK-MEL-5, 5 log dose, 48 h, read-out: LC50 (the source's name)",> 25 µM
same,GI50,UACC-257; UACC-257,3.96 µM
same,IC (TGI),"UACC-257; UACC-257, read-out: TGI",> 25 µM
same,activity at 10 µM,UACC-257,22%
same,CC50,"UACC-257; UACC-257, 5 log dose, 48 h, read-out: LC50 (the source's name)",> 25 µM
same,GI50,"UACC-62; Homo sapiens, UACC-62",6.84 µM
same,activity at 10 µM,UACC-62; Homo sapiens,41.3%
same,CC50,"UACC-62; Homo sapiens, UACC-62, 5 log dose, 48 h, read-out: LC50 (the source's name)",> 25 µM
same,TGI,"UACC-62; UACC-62, 5 log dose",> 25 µM
same,GI50,"OVCAR-3; OVCAR-3, 5 log dose",2.64 µM
same,IC (TGI),"OVCAR-3; OVCAR-3, 5 log dose",5.97 µM
same,CC50,"OVCAR-3; OVCAR-3, 5 log dose, 48 h, read-out: LC50 (the source's name)",13.5 µM
same,activity at 10 µM,OVCAR-3,25.4%
same,GI50,"OVCAR-8; OVCAR-8, 5 log dose",2.6 µM
same,IC (TGI),"OVCAR-8; OVCAR-8, 5 log dose",6.53 µM
same,CC50,"OVCAR-8; OVCAR-8, 5 log dose, 48 h, read-out: LC50 (the source's name)",16.4 µM
same,activity at 10 µM,OVCAR-8,15.5%
same,GI50,"786-0; 786-0, 5 log dose",3.6 µM
same,IC (TGI),"786-0; 786-0, 5 log dose",8.18 µM
same,CC50,"786-0; 786-0, 5 log dose, 48 h, read-out: LC50 (the source's name)",18.6 µM
same,activity at 10 µM,786-0,38.2%
same,GI50,"DU-145; DU-145, 5 log dose",3.01 µM
same,IC (TGI),"DU-145; DU-145, 5 log dose",10.5 µM
same,CC50,"DU-145; DU-145, 5 log dose, 48 h, read-out: LC50 (the source's name)",> 25 µM
same,activity at 10 µM,DU-145,39%
same,inhibition at 10 µM,VEGFR-2 tyrosine kinase,24%
